The subject of series [1] is 24-hydroxylase gene reporter plasmid in rat osteosarcoma cells. Nature of the series: 24-hydroxylase (24-OHase) transcription, luciferase reporter. The following applies: for EC50: Rattus norvegicus, read-out: 24OHase transcription ED50; for 24OHase transcription Ratio: average ratio of the 1α,25-(OH)2D3 ED50 to the ED50 for the analogue.
Description: (§1) The experiments were carried out in duplicate on two different occasions. […] The binding ratio is the average ratio of the 1□,25-(OH)2D3 Ki to the Ki for the analogue. ^bInduction of differentiation of HL-60 promyelocytes to monocytes by 1□,25-(OH)2D3 (1) and the synthesized vitamin D analogues. Differentiation state was determined by measuring the percentage of cells reducing nitro blue tetrazolium (NBT). The experiment was repeated in duplicate two times. […] The differentiation activity ratio is the average ratio of the 1□,25-(OH)2D3 ED50 to the ED50 for the analogue. ^cTranscriptional assay in rat osteosarcoma cells stably transfected with a 24-hydroxylase gene reporter plasmid. […] The luciferase activity ratio is the average ratio of the 1□,25-(OH)2D3 ED50 to the ED50 for the analogue.
For series [2] the following is noted: background statement in the discussion; cited from earlier work.
For series [3] the following is noted: background statement in the discussion, compared with 1,25-(OH)2D3; cited from earlier work.
Series [4] deals with T1, full-length recombinant rat vitamin D receptor (Rattus norvegicus, UniProt P13053).
T1 sequence (P13053 1-423): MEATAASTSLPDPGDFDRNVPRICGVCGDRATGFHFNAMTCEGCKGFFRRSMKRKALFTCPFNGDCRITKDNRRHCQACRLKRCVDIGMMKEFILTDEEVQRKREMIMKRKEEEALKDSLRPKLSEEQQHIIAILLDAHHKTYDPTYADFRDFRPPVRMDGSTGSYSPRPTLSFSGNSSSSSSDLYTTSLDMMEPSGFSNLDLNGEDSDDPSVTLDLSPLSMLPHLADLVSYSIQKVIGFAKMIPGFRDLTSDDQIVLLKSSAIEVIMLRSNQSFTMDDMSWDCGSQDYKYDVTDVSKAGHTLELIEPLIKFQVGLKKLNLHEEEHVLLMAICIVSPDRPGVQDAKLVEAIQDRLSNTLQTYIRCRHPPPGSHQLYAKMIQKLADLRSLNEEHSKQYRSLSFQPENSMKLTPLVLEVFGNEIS
Description: Competitive VDR binding. The following applies: for VDR binding ratio: average ratio of the 1α,25-(OH)2D3 Ki to the Ki for the analogue.
Description: as §1

The next series relates to HL-60 promyelocytes. Nature of the series: HL-60 differentiation (NBT reduction). The following applies: for HL-60 differentiation ratio: average ratio of the 1α,25-(OH)2D3 ED50 to the ED50 for the analogue; for HL-60 differentiation activity, in words: compared with 1α,25-(OH)2D3.
The nature of series [5]: Bone calcium mobilization in vivo (serum calcium). The arrangement: species or system Sprague-Dawley rats. The settings on record: rats on 0.02% Ca diet, four consecutive intraperitoneal doses, serum calcium 24 hours after the last dose. The source says:
2. In vivo Studies. Bone calcium mobilization and intestinal calcium transport.
Male, weanling Sprague-Dawley rats were purchased from Harlan (Indianapolis, Ind.). The animals were group housed and placed on Diet 11 (0.47% Ca)+AEK oil for one week followed by Diet 11 (0.02% Ca)+AEK oil for 3 weeks. The rats were then switched to a diet containing 0.47% Ca^26 for one week followed by two weeks on a diet containing 0.02% Ca. Dose administration began during the last week on 0.02% Ca diet. Four consecutive intraperitoneal doses were given approximately 24 hours apart. Twenty-four hours after the last dose, blood was collected from the severed neck and the concentration of serum calcium determined as a measure of bone calcium mobilization. The first 10 cm of the intestine was also collected for the intestinal calcium transport analysis using the everted gut sac method.^25

The term Ki denotes the dissociation constant of the complex between target and ligand, obtained from inhibition or displacement. For orientation: melting point means the temperature of the solid-liquid transition.

Description for HL-60 promyelocytes: as §1

For `C=C1/C(=C\C=C2/CCC[C@@]3(C)C2CCC3[C@H](C)CCCC(C)(C)O)C[C@@H](O)C[C@@H]1O` (stereo partly drawn) [Compound 1, 1α,25-dihydroxyvitamin D3, reference compound], the EC50 in series [1] worked out at 0.2 nM.
Take `C=C1[C@H](O)CC(=C/C=C2\CCC[C@@]3(C)C2CCC3[C@@H](C)CCCC(C)(C)O)C[C@H]1O` (stereo partly drawn) [Compound 2, 2-methylene-(20S)-1α,25-dihydroxy-19-nor vitamin D3, reference compound]: the “bone calcium mobilizing activity of 2MD, in words” value in series [2] is “greatly increased bone calcium mobilizing activity”. The “intestinal calcium absorption of 2MD, in words” value in series [3] is reported as “not increased above that found with 1,25-(OH)2D3”. In series [4], the Ki came to 0.03 nM and the VDR binding ratio is on record as 1.3. Further, the HL-60 differentiation ratio in the series on HL-60 promyelocytes came to 150. Further, in series [1], the EC50 is 0.007 nM and the “24OHase transcription Ratio” value is given as 29.
For the compound `C=C1[C@H](O)CC(=C/C=C2\CCC[C@@]3(C)C2CCC3[C@H](C)CCC(F)(F)C(C)(C)O)C[C@H]1O` (stereo partly drawn) [Compound 3, (20R)-1α,25-Dihydroxy-24,24-difluoro-2-methylene-19-norvitamin D3], the melting point was 163 to 164 °C. For the same compound, the “bone calcium mobilization activity, in words” value in series [5] is “not as potent in vivo as analogues 4 and 6”. Moreover, in series [4], the Ki worked out at 0.04 nM and the VDR binding ratio was 1. Further, in the series with HL-60 promyelocytes, the HL-60 differentiation ratio came to 30 and the “HL-60 differentiation activity, in words” value is “high potency”. In series [1], the EC50 is 0.01 nM and the “24OHase transcription Ratio” value came out at 20.
In the case of `C=C1[C@H](O)CC(=C/C=C2\CCC[C@@]3(C)C2CCC3[C@@H](C)CCC(F)(F)C(C)(C)O)C[C@H]1O` (stereo partly drawn) [Compound 4, (20S)-1α,25-Dihydroxy-24,24-difluoro-2-methylene-19-norvitamin D3], the “bone calcium mobilization activity, in words” value in series [5] is listed as “highest bone mobilization activity”. Further, the “bone calcium mobilization activity, in words” value in series [5] (listed as 24,24-difluoro substituted 19-nor-20S-2-methylene-1α,25-(OH)2D3) was “bone calcium mobilization activity rivaling 2-methylene-19-nor-(20S)-1,25-dihydroxyvitamin D3 or 2MD”. Also, in series [4], the inhibition constant Ki worked out at 0.03 nM and the VDR binding ratio came out at 1.3. Also, the HL-60 differentiation ratio with HL-60 promyelocytes is recorded as 100. In addition, in series [1], the EC50 was 0.02 nM and the “24OHase transcription Ratio” value is on record as 10. Besides, in series [1] (compared with 1α,25-(OH)2D3 or 2MD), the “24-OHase (CYP24A1) transcriptional activity, in words” value is on record as “almost as active as 2MD”.
Regarding `C[C@H](CCC(F)(F)C(C)(C)O)C1CCC2/C(=C/C=C3C[C@@H](O)C[C@H](O)C3)CCC[C@@]21C` (stereo partly drawn) [Compound 5, (20R)-1α,25-Dihydroxy-24,24-difluoro-19-norvitamin D3], the melting point was in the range of 182 to 183 °C. In addition, the “bone calcium mobilization activity, in words” value in series [5] was “not as potent in vivo as analogues 4 and 6”. Also, in series [4], the inhibitory constant (Ki) is 0.02 nM and the VDR binding ratio is listed as 2. Besides, the “VDR binding, in words” value in series [4] (compared with 1α,25-(OH)2D3) was “slightly more effective than 1α,25-(OH)2D3”. Moreover, in the series on HL-60 promyelocytes, the HL-60 differentiation ratio is 60 and the “HL-60 differentiation activity, in words” value is given as “high potency”. In series [1], the EC50 turned out to be 0.04 nM and the “24OHase transcription Ratio” value is listed as 5.
Consider `C[C@@H](CCC(F)(F)C(C)(C)O)C1CCC2/C(=C/C=C3C[C@@H](O)C[C@H](O)C3)CCC[C@@]21C` (stereo partly drawn) [Compound 6, (20S)-1α,25-Dihydroxy-24,24-difluoro-19-norvitamin D3], for which, in series [5], the “bone calcium mobilization activity, in words” value was “highest bone mobilization activity”. In addition, in series [4], the Ki turned out to be 0.03 nM and the VDR binding ratio is 1.3. Further, the HL-60 differentiation ratio in the series on HL-60 promyelocytes was determined as 50. For the same compound, in series [1], the EC50 came out at 0.04 nM and the “24OHase transcription Ratio” value was 5.

Values taken from US10494337B2, “(20S)-1-α,25-dihydroxy-24,24-difluoro-19-nor-vitamin D3 analogs and their pharmaceutical uses” (Wisconsin Alumni Research Foundation, priority 2015, dated 2019).
